# Laboratory results published in patent US11884750B2, “Cationic cell penetrating peptides and the use thereof” (CELLTROY CO., LTD., priority 2021, dated 2024).
# Entries after “also recorded” stand apart in the source; their conditions may differ.
# How the values were obtained:
# [1] = test system: macrophages; assay: Cell penetration efficiency using macrophages; type: cell-based; conditions: macrophages differentiated from THP1 cells, 4 μM FITC-conjugated CPP, one hour
# Protocol: (§1) Subsequently, to confirm whether the CPPs according to the present invention show excellent cell permeability into different types of cells/tissues, various tissue-derived cells were treated with biologically active molecule-conjugated CPPs to compare its delivery capacity with TAT. As in the previous examples, each cell was aliquoted in a plate at an appropriate density, and cultured in a 10% FBS-added medium under a condition of 37° C. and 5% CO2 for 24 hours. Subsequently, the cells were treated with 4 μM each of FITC-conjugated CPP or FITC-conjugated TAT and incubated for one hour. After the completion of the incubation, the cells were transferred to a sterile tube using 0.25% trypsin and centrifuged to remove the medium. Afterward, the cells were washed with 500 μL of D-PBS twice to completely remove the medium, and finally, resuspended in 400 μL of D-PBS and intracellular fluorescence was measured by flow cytometry (FACSCanto II). Macrophages were used by inducing differentiation from THP1 cells. Specifically, the THP-1 cells were aliquoted on a cover glass laid on a 24-well plate to have a density of 6×10^4 cells/well, and after the addition of 100 ng/mL of phorbol 12-myristate 13-acetate (PMA), the cells were incubated for 48 hours to induce the differentiation into macrophages. After 48 hours, the cells were washed with Dulbecco's phosphate buffered saline (DPBS) to perform an experiment.
# [2] = test system: A-427 cell line; assay: Cell penetration efficiency using lung cells; type: cell-based; conditions: A-427 lung cells, 4 μM FITC-conjugated CPP, one hour
# Protocol: as §1, with “II).” for “II). Macrophages were used by inducing differentiation from THP1 cells. Specifically, the THP-1 cells were aliquoted on a cover glass laid on a 24-well plate to have a density of 6×10^4 cells/well, and after the addition of 100 ng/mL of phorbol 12-myristate 13-acetate (PMA), the cells were incubated for 48 hours to induce the differentiation into macrophages. After 48 hours, the cells were washed with Dulbecco's phosphate buffered saline (DPBS) to perform an experiment.”
# [3] = test system: HT1080 cell line; assay: Cell penetration efficiency using connective tissue (fibrosarcoma) cells; type: cell-based; conditions: 4 μM FITC-conjugated CPP, one hour
# Summary of the method: (§2)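 Flow cytometry quantified cell-associated FITC signal following a 1 h incubation with FITC-tagged CPP or TAT at 4 μM.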
# [4] = test system: SH-SY5Y cells; assay: Cell penetration efficiency in human neuroblastoma cells, 4 μM, flow cytometry; type: cell-based; conditions: one hour; for cell permeability compared with TAT: 4 μM FITC-conjugated CPP, flow cytometry; for Score / Score/TAT: 4 μM FITC-conjugated peptide; for Score: intracellular fluorescence by flow cytometry; for Score/TAT: ratio to FITC-conjugated TAT
# Summary of the method: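 SH-SY5Y cells cultured 24 h in DMEM/10% FBS at 37 °C, 5% CO2, then exposed to 4 μM FITC-conjugated peptide (FITC-TAT as reference) for 1 h. After trypsinisation and D-PBS washes, intracellular fluorescence measured by flow cytometry.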
# [5] = test system: SNU-46 cell line; assay: Cell penetration efficiency using laryngeal cells; type: cell-based; conditions: SNU-46 laryngeal cells, 4 μM FITC-conjugated CPP, one hour
# Protocol: as §1, with “II).” for “II). Macrophages were used by inducing differentiation from THP1 cells. Specifically, the THP-1 cells were aliquoted on a cover glass laid on a 24-well plate to have a density of 6×10^4 cells/well, and after the addition of 100 ng/mL of phorbol 12-myristate 13-acetate (PMA), the cells were incubated for 48 hours to induce the differentiation into macrophages. After 48 hours, the cells were washed with Dulbecco's phosphate buffered saline (DPBS) to perform an experiment.”
# [6] = test system: HEK293T cell line; assay: Cell penetration efficiency using kidney cells; type: cell-based; conditions: 4 μM FITC-conjugated CPP, one hour
# Summary of the method: as §2
# [7] = test system: HepG2 cell line; assay: Cell penetration efficiency using liver cells; type: cell-based; conditions: 4 μM FITC-conjugated CPP, one hour
# Protocol: as §1, with “II).” for “II). Macrophages were used by inducing differentiation from THP1 cells. Specifically, the THP-1 cells were aliquoted on a cover glass laid on a 24-well plate to have a density of 6×10^4 cells/well, and after the addition of 100 ng/mL of phorbol 12-myristate 13-acetate (PMA), the cells were incubated for 48 hours to induce the differentiation into macrophages. After 48 hours, the cells were washed with Dulbecco's phosphate buffered saline (DPBS) to perform an experiment.”
# [8] = test system: HeLa cell line; assay: Cell penetration efficiency using cervical cancer cells; type: cell-based; conditions: 4 μM FITC-conjugated CPP, one hour
# Summary of the method: as §2
# [9] = test system: HaCAT cells; assay: Cell penetration efficiency in human epidermal (skin) cells, 4 μM, flow cytometry; type: cell-based; conditions: 4 μM FITC-conjugated CPP, one hour
# Protocol: The cell penetration efficiency of the cationic CPPs selected in Example 1 was evaluated using human epidermal cells. In further detail, HaCAT cells, which is a human epidermal cell line, were seeded in 24-well plates to have a cell density of 1×10^7 cells/well, and cultured in 10% FBS-added DMEM under conditions of 37° C. and 5% CO2 for 24 hours. Subsequently, the cells were treated 4 μM each of the FITC-conjugated CPP or FITC-conjugated TAT, and incubated for one hour. After the termination of the incubation, the cells were transferred to a sterile tube using 0.25% trypsin, and the medium was removed through centrifugation. Afterward, the cells were washed with 500 μL of D-PBS twice to completely remove the medium, and finally, resuspended in 400 μL of D-PBS and intracellular fluorescence was measured by flow cytometry (FACSCanto II).
# To evaluate the cell penetration efficiency of the additionally selected cationic CPPs, an experiment was conducted using human epidermal cells or human neuroblastoma cells. In further detail, HaCAT cells, which is a human epidermal cell line, or SH-SYSY cells, which is a human neuroblastoma cell line, were seeded in 24-well plates to have a cell density of 1×10^7 cells/well and cultured in 10% FBS-added DMEM under conditions of 37° C. and 5% CO2 for 24 hours. In addition, the cells were treated with 4 μM each of FITC-conjugated peptides and FITC-conjugated TAT for one hour. After the completion of the culture, the cells were transferred to a sterile tube using 0.25% trypsin and centrifuged to remove the medium. Afterward, the cells were washed with 500 μL of D-PBS twice to completely remove the medium, and finally, resuspended in 400 μL of D-PBS and intracellular fluorescence was measured by flow cytometry (FACSCanto II).
# as §1, with “II).” for “II). Macrophages were used by inducing differentiation from THP1 cells. Specifically, the THP-1 cells were aliquoted on a cover glass laid on a 24-well plate to have a density of 6×10^4 cells/well, and after the addition of 100 ng/mL of phorbol 12-myristate 13-acetate (PMA), the cells were incubated for 48 hours to induce the differentiation into macrophages. After 48 hours, the cells were washed with Dulbecco's phosphate buffered saline (DPBS) to perform an experiment.”
# [10] = test system: HGB cell line; assay: Cell penetration efficiency in glioblastoma cells; type: cell-based, human; conditions: 4 μM FITC-conjugated CPP, one hour
# Summary of the method: as §2
# [11] = test system: HDF cell line; assay: Cell penetration efficiency in skin cells (HDF); type: cell-based; conditions: 4 μM FITC-conjugated CPP, one hour
# Protocol: as §1, with “II).” for “II). Macrophages were used by inducing differentiation from THP1 cells. Specifically, the THP-1 cells were aliquoted on a cover glass laid on a 24-well plate to have a density of 6×10^4 cells/well, and after the addition of 100 ng/mL of phorbol 12-myristate 13-acetate (PMA), the cells were incubated for 48 hours to induce the differentiation into macrophages. After 48 hours, the cells were washed with Dulbecco's phosphate buffered saline (DPBS) to perform an experiment.”
# [12] = test system: monocytes; assay: Cell penetration efficiency using monocytes; type: cell-based; conditions: 4 μM FITC-conjugated CPP, one hour
# Protocol: as §1, with “II).” for “II). Macrophages were used by inducing differentiation from THP1 cells. Specifically, the THP-1 cells were aliquoted on a cover glass laid on a 24-well plate to have a density of 6×10^4 cells/well, and after the addition of 100 ng/mL of phorbol 12-myristate 13-acetate (PMA), the cells were incubated for 48 hours to induce the differentiation into macrophages. After 48 hours, the cells were washed with Dulbecco's phosphate buffered saline (DPBS) to perform an experiment.”
Sequence,cell permeability compared with TAT [1],cell permeability compared with TAT [2],cell permeability compared with TAT [3],cell permeability compared with TAT [4],Score [4],Score/TAT [4],cell permeability compared with TAT [5],cell permeability compared with TAT [6],cell permeability compared with TAT [7],cell permeability compared with TAT [8],cell permeability compared with TAT [9],cell permeability compared with TAT [10],cell permeability compared with TAT [11],cell permeability compared with TAT [12]
KPRKKKKKRKNKKI [C12],higher cell permeability,higher cell permeability,higher cell permeability,higher cell permeability,2062,3.973,higher cell permeability,higher cell permeability,higher cell permeability,higher cell permeability,increased cell permeability,higher cell permeability,higher cell permeability,
IRAKKKKRRRKKKP [C31],higher cell permeability,higher cell permeability,higher cell permeability,higher cell permeability,998,1.923,higher cell permeability,higher cell permeability,higher cell permeability,higher cell permeability,increased cell permeability; also recorded: higher cell permeability,,higher cell permeability,
RPRRKKQIKRLCKR [C16],higher cell permeability,higher cell permeability,higher cell permeability,higher cell permeability,1680,3.237,higher cell permeability,higher cell permeability,higher cell permeability,higher cell permeability,increased cell permeability; also recorded: higher cell permeability,higher cell permeability,higher cell permeability,
ARLRVILRRRNPKR [C93],,higher cell permeability,higher cell permeability,higher cell permeability,1798,3.464,higher cell permeability,higher cell permeability,higher cell permeability,higher cell permeability,higher cell permeability,higher cell permeability,higher cell permeability,higher cell permeability
TKRRKRRLRRRLTP [C52],higher cell permeability,higher cell permeability,higher cell permeability,higher cell permeability,1328,2.559,higher cell permeability,higher cell permeability,higher cell permeability,higher cell permeability,increased cell permeability; also recorded: higher cell permeability,,higher cell permeability,
MPKIRKLKRRKKFR [C79],,,higher cell permeability,higher cell permeability,863,1.663,higher cell permeability,,higher cell permeability,higher cell permeability,higher cell permeability,higher cell permeability,higher cell permeability,higher cell permeability
ALVLLRRRRRDRKP [C14],,higher cell permeability,higher cell permeability,higher cell permeability,1382,2.663,higher cell permeability,higher cell permeability,higher cell permeability,higher cell permeability,increased cell permeability; also recorded: higher cell permeability,higher cell permeability,higher cell permeability,
